ChEMBL document CHEMBL5244255, “An insight on medicinal attributes of 1,2,4-triazoles” (Eur J Med Chem, 2020)
In brackets after ≈: the same amount, converted by molar mass.

What was measured:
Plasmodium falciparum [1] = test: Antimalarial activity against Chloroquine resistant Plasmodium falciparum W2; format: functional, organism-based
Mus musculus [2] = test: Anticonvulsant activity in ip dosed mouse; format: functional
[3] = Protection index, ratio of TD50 for neurotoxicity in ip dosed mouse to ED50 for anticonvulsant activity in ip dosed mouse; format: toxicity, organism-based; conditions: in vivo, read-out: Ratio TD50/ED50
DNA topoisomerase II = DNA topoisomerase II (Homo sapiens, UniProt P11388+Q02880); test: Inhibition of human Topoisomerase 2 incubated for 30 mins by ELISA assay; format: protein assay
Enterococcus faecalis = test: Antibacterial activity against Enterococcus faecalis ATCC 29212 assessed as bacterial growth inhibition by double micro dilution method; format: functional
Klebsiella pneumoniae = test: Antibacterial activity against Klebsiella pneumoniae ATCC 13883 assessed as bacterial growth inhibition by double micro dilution method; format: functional
[4] = system: Acinetobacter haemolyticus; test: Antibacterial activity against Acinetobacter haemolyticus ATCC 19002 assessed as bacterial growth inhibition by double micro dilution method; format: functional
Staphylococcus aureus [5] = test: Antibacterial activity against Staphylococcus aureus ATCC 25923 assessed as bacterial growth inhibition by double micro dilution method; format: functional
Escherichia coli = test: Antibacterial activity against Escherichia coli ATCC 25922 assessed as bacterial growth inhibition by double micro dilution method; format: functional
Pseudomonas aeruginosa = test: Antibacterial activity against Pseudomonas aeruginosa ATCC 27853 assessed as bacterial growth inhibition by double micro dilution method; format: functional
Plasmodium falciparum [6] = test: microbe, parasite or virus in culture
RS4-11 = test: Antiproliferative activity against human RS4-11 cells assessed as cell growth inhibition incubated for 48 hrs by MTT assay; format: functional, cell-based; conditions: RS4-11, 48 h
Jurkat = test: Antiproliferative activity against human jurkat cells assessed as cell growth inhibition incubated for 48 hrs by MTT assay; format: functional, cell-based
HeLa = test: Antiproliferative activity against human HeLa cells assessed as cell growth inhibition incubated for 48 hrs by MTT assay; format: functional, cell-based
HT-29 = test: Antiproliferative activity against human HT-29 cells assessed as cell growth inhibition incubated for 48 hrs by MTT assay; format: functional, cell-based; conditions: HT-29, 48 h
MCF7 = test: Antiproliferative activity against human MCF7 cells assessed as cell growth inhibition incubated for 48 hrs by MTT assay; format: functional, cell-based; conditions: MCF7, 48 h
[7] = system: Mycobacterium tuberculosis; test: Antimycobacterial activity against Mycobacterium tuberculosis H37Rv; format: functional
MDA-MB-231 = test: Antiproliferative activity against human MDA-MB-231 cells assessed as cell growth inhibition by MTT assay; format: functional, cell-based
[8] = system: Mycobacterium tuberculosis; test: Antimycobacterial activity against Mycobacterium tuberculosis H37Rv measured after 21 days; format: functional; conditions: 504 h, time 21 day
[9] = system: Xanthomonas oryzae pv. oryzae; test: Antibacterial activity against Xanthomonas oryzae pv. oryzae assessed as bacterial growth inhibition; format: functional, organism-based
[10] = system: Mycobacterium tuberculosis; test: Antimycobacterial activity against Mycobacterium tuberculosis H37Rv measured after 8 to 9 days; format: functional; conditions: time 8-9 day
[11] = Inhibition of Mycobacterium tuberculosis shikimate dehydrogenase
Leishmania major [12] = test: Antileishmanial activity against promastigotes stage of Leishmania major; format: functional, organism-based
Mus musculus [13] = test: Anticonvulsant activity in ip dosed mouse assessed as protection against PTZ-induced seizure; format: functional
[14] = system: Mycobacterium tuberculosis; test: Antimycobacterial activity against Mycobacterium tuberculosis H37Rv measured […] by MABA assay; format: functional
[15] = system: Mycobacterium tuberculosis; test: Potency index, ratio of test compound MIC to Pyrazinamide MIC for antimycobacterial activity against Mycobacterium tuberculosis H37Rv; format: functional
Leishmania major [16] = test: Potency index, ratio of test compound IC50 to miltefosine IC50 for antileishmanial activity against promastigotes stage of leishmania major; format: functional
Leishmania major [17] = test: Potency index, ratio of test compound IC50 to amphotericin B IC50 for antileishmanial activity against promastigotes stage of leishmania major; format: functional
[18] = Inhibition of 5 alpha reductase (unknown origin)
[19] = system: Mycobacterium tuberculosis; test: Antimycobacterial activity against Mycobacterium tuberculosis H37Rv measured after 7 days; format: functional; conditions: 168 h, time 7 day
Rattus norvegicus [20] = species: Rattus norvegicus; test: Bronchodilator activity in Sprague-Dawley rat; format: functional, organism-based
Rattus norvegicus [21] = test: Antiinflammatory activity in rat assessed as reduction in edema at 17 mg/kg, ip measured after 5 hrs relative to control; format: functional; parameters: scale not given: the % may be the effect or the level left
Staphylococcus aureus [22] = test: Antibacterial activity against Staphylococcus aureus assessed as bacterial growth inhibition incubated for 16 hrs; format: functional
Trypanosoma cruzi [23] = test: Trypanocidal activity against amastigote stage of Trypanosoma cruzi; format: functional, organism-based
Trypanosoma cruzi [24] = test: Trypanocidal activity against epimastigote stage of Trypanosoma cruzi; format: functional, organism-based

Question: With `Cc1cc(Nc2ccc(Cl)c(Cl)c2)n2nc(C(F)(F)F)nc2n1` as the molecule, how does the IC50 (Plasmodium falciparum [1]) read?
Answer: Its IC50 is 23 nM.

Question: For `NC(=O)N1c2ccccc2C=Cc2ccccc21` [CARBAMAZEPINE], which ED50 (Mus musculus [2]) is on record?
Answer: Its ED50 is 11.8 mg/kg.

Question: And the selectivity ratio [3]?
Answer: Its selectivity ratio is 6.4.

Question: For `O=C(CSc1nc2ccccc2n2cnnc12)Nc1ccc(S(=O)(=O)Nc2nccs2)cc1`, which IC50 (DNA topoisomerase II) is on record?
Answer: The IC50 was 1100 nM.

Question: Which MIC (Enterococcus faecalis) does the source give for `CCn1c(CN2CCN(c3ccccc3)CC2)nn(CN2CCN(c3cc4c(cc3F)c(=O)c(C(=O)O)cn4C3CC3)CC2)c1=S` here?
Answer: The MIC was 0.125 µg/mL (≈ 0.193 µM).

Question: What about the MIC (Klebsiella pneumoniae) of the same molecule?
Answer: Its MIC is 0.125 µg/mL (≈ 0.193 µM).

Question: What about the MIC [4] of the same molecule?
Answer: Its MIC is 0.125 µg/mL (≈ 0.193 µM).

Question: And the MIC (Staphylococcus aureus [5])?
Answer: The MIC was 0.125 µg/mL (≈ 0.193 µM).

Question: What about the MIC (Escherichia coli) of the same molecule?
Answer: Its MIC is 0.125 µg/mL (≈ 0.193 µM).

Question: What about the MIC (Pseudomonas aeruginosa) of the same molecule?
Answer: Its MIC is 0.125 µg/mL (≈ 0.193 µM).

Question: With `Nc1cc(Cl)c(S(N)(=O)=O)cc1-c1nnc(S)n1-c1ccccc1` as the molecule, how does the IC50 (Plasmodium falciparum [6]) read?
Answer: Its IC50 is 0.023 µg/mL (≈ 0.0602 µM).

Question: With `COc1cc(C(=O)n2nc(-c3ccc(Br)cc3)nc2N)cc(OC)c1OC` as the molecule, how does the IC50 (RS4-11) read?
Answer: Its IC50 is < 1000 nM.

Question: And the IC50 (Jurkat)?
Answer: Its IC50 is < 1000 nM.

Question: What about the IC50 (HeLa) of the same molecule?
Answer: Its IC50 is < 1000 nM.

Question: And the IC50 (HT-29)?
Answer: The IC50 was < 1000 nM.

Question: What about the IC50 (MCF7) of the same molecule?
Answer: Its IC50 is < 1000 nM.

Question: Which MIC [7] does the source give for `CC1CC(C)(C)CC(O)(c2nnc(-c3ccncc3)[nH]2)C1` (stereo not given) here?
Answer: The MIC was 0.59 µg/mL (≈ 2.06 µM).

Question: Which IC50 (MDA-MB-231) does the source give for `Cc1nn(-c2ccccc2)c(=O)n1-n1c(-c2cc3ccccc3oc2=O)cs/c1=N\c1ccc(Cl)cc1` here?
Answer: Its IC50 is 0.16 µg/mL (≈ 0.303 µM).

Question: For `Brc1ccc(/C=C/c2nnc3c4ccccc4cnn23)cc1`, which MIC [8] is on record?
Answer: Its MIC is 0.5 µg/mL (≈ 1.42 µM).

Question: For `O=c1[nH]nc2n1-c1ccc(OCc3ccc(F)cc3)cc1OCC2`, which ED50 (Mus musculus [2]) is on record?
Answer: Its ED50 is 26.3 mg/kg.

Question: And the selectivity ratio [3]?
Answer: The selectivity ratio was 12.6.

Question: For `O=C(CSc1nnc(C2CCN(c3ncnc4ccccc34)CC2)n1-c1ccccc1)Nc1cccc([N+](=O)[O-])c1`, which EC50 [9] is on record?
Answer: Its EC50 is 34.5 µg/mL (≈ 60.9 µM).

Question: Which MIC [10] does the source give for `O=[N+]([O-])c1ccc(C2=Nn3c(nnc3-c3ccnc(F)c3)CC2)cc1` here?
Answer: Its MIC is 0.25 µg/mL (≈ 0.739 µM).

Question: And the IC50 [11]?
Answer: The IC50 was 73.57 µg/mL (≈ 217 µM).

Question: With `CCCCCCCCCCCCCCCCOP(=O)([O-])OCC[N+](C)(C)C` [MILTEFOSINE] as the molecule, how does the IC50 (Leishmania major [12]) read?
Answer: Its IC50 is 3.19 µg/mL (≈ 7.83 µM).

Question: What does the source list for `CCCOc1ccc(-c2csc3nncn23)cc1`?
Answer: ED50 (Mus musculus [13]): 63.4 mg/kg; TD50 (Mus musculus [13]): 106 mg/kg; selectivity ratio [3]: 1.9

Question: Which MIC [14] does the source give for `COc1ccc(-n2ncn(Cc3cn(Cc4cc(=O)oc5ccc(C)cc45)nn3)c2=O)cc1` here?
Answer: Its MIC is 1.6 µg/mL (≈ 3.6 µM).

Question: And the Ratio [15]?
Answer: The Ratio was 2.

Question: With `O=C(CSc1nnc(C2CCN(c3ncnc4ccccc34)CC2)n1-c1ccccc1)Nc1cccc(F)c1` as the molecule, how does the EC50 [9] read?
Answer: Its EC50 is 34.5 µg/mL (≈ 63.9 µM).

Question: Which IC50 (Leishmania major [12]) does the source give for `NC1=NNC(c2ccccc2O)N1C(Cc1cc2ccccc2[nH]1)C(=O)O` (stereo not given) here?
Answer: Its IC50 is 0.0312 µg/mL (≈ 0.0854 µM).

Question: What about the “Ratio IC50” value (Leishmania major [16]) of the same molecule?
Answer: Its value is 36.

Question: And the “Ratio IC50” value (Leishmania major [17])?
Answer: Its value is 36.

Question: With `O=C(Nc1ccccc1)C1=NN(c2ccccc2)/C(=C2/C=NN(Cc3cc4ccccc4oc3=O)C2=O)N1c1ccccc1` as the molecule, how does the ED50 [18] read?
Answer: The ED50 was 150 nM.

Question: Which results are given for `O=c1[nH]nc2n1-c1ccc(OCc3ccc(F)cc3)cc1SC2`?
Answer: ED50 (Mus musculus [2]): 9.2 mg/kg; selectivity ratio [3]: 15.4

Question: For `O=[N+]([O-])c1ncn(CCCCNS(=O)(=O)c2sccc2Cl)n1`, which MIC [19] is on record?
Answer: Its MIC is 3.13 µg/mL (≈ 8.56 µM).

Question: Which IC50 (Plasmodium falciparum [6]) does the source give for `COc1ccccc1-n1c(S)nnc1-c1cc(S(N)(=O)=O)c(Cl)cc1N` here?
Answer: Its IC50 is 0.025 µg/mL (≈ 0.0607 µM).

Question: What does the source list for `CC(C)C(C(=O)O)N1C(N)=NNC1(C)c1ccccc1O` (stereo not given)?
Answer: IC50 (Leishmania major [12]): 0.0312 µg/mL (≈ 0.107 µM); Ratio IC50 (Leishmania major [16]): 36; Ratio IC50 (Leishmania major [17]): 36

Question: With `OC1(c2nnc(-c3ccncc3)[nH]2)CCCC1` as the molecule, how does the MIC [7] read?
Answer: The MIC was 0.59 µg/mL (≈ 2.56 µM).

Question: Which MIC [10] does the source give for `O=[N+]([O-])c1ccc(C2=Nn3c(nnc3-c3ccc(Br)cc3)CC2)cc1` here?
Answer: Its MIC is 0.25 µg/mL (≈ 0.628 µM).

Question: What about the IC50 [11] of the same molecule?
Answer: Its IC50 is 86.39 µg/mL (≈ 217 µM).

Question: With `Cn1c(=O)c2nc[nH]c2n(C)c1=O` [THEOPHYLLINE] as the molecule, how does the EC50 (Rattus norvegicus [20]) read?
Answer: Its EC50 is 425000 nM.

Question: With `COc1ccc(-c2cc(-c3nnc(SCC(=O)Nc4ccc(/C(C)=N/O)cc4)n3-c3ccccc3)c3cc(C)ccc3n2)cc1` as the molecule, how does the Activity (Rattus norvegicus [21]) read?
Answer: The Activity was 101%.

Question: For `C[C@@H]1[C@H](O)[C@@H](C)/C=C/C=C/C=C/C=C/C=C/C=C/C=C/[C@H](O[C@@H]2O[C@H](C)[C@@H](O)[C@H](N)[C@@H]2O)C[C@@H]2O[C@](O)(C[C@@H](O)C[C@@H](O)[C@H](O)CC[C@@H](O)C[C@@H](O)CC(=O)O[C@H]1C)C[C@H](O)[C@H]2C(=O)O` [AMPHOTERICIN B], which IC50 (Leishmania major [12]) is on record?
Answer: Its IC50 is 0.0472 µg/mL (≈ 0.0511 µM).

Question: Which EC50 (Rattus norvegicus [20]) does the source give for `O=c1c(-c2n[nH]c(=S)n2-c2ccccc2)c[nH]c2ncnn12` here?
Answer: The EC50 was 57100 nM.

Question: Which IC50 (MDA-MB-231) does the source give for `COc1ccc(/N=c2\scc(-c3cc4ccccc4oc3=O)n2-n2c(C)nn(-c3ccc(Br)cc3)c2=O)cc1` here?
Answer: The IC50 was 0.16 µg/mL (≈ 0.266 µM).

Question: With `Cc1ccc(-n2nc(C)n(-n3c(-c4cc5ccccc5oc4=O)cs/c3=N\c3ccccc3)c2=O)cc1` as the molecule, how does the IC50 (MDA-MB-231) read?
Answer: Its IC50 is 0.16 µg/mL (≈ 0.315 µM).

Question: With `Cc1ccc(C(=O)NCc2nnc(S)n2/N=C/c2ccc(Cl)cc2)cc1` as the molecule, how does the MIC (Staphylococcus aureus [22]) read?
Answer: Its MIC is 3.12 µg/mL (≈ 8.1 µM).

Question: With `C=Cn1c(SCC(=O)Nc2ccc(/C(C)=N/O)cc2)nnc1-c1cc(-c2ccc(OC)cc2)nc2ccccc12` as the molecule, how does the Activity (Rattus norvegicus [21]) read?
Answer: The Activity was 111%.

Question: Which results are given for `CCCCSC1NN=C(/C=C/C=C/c2ccc3c(c2)OCO3)N1C1CCCCC1` (stereo not given)?
Answer: IC50 (Trypanosoma cruzi [23]): 3610 nM; IC50 (Trypanosoma cruzi [24]): 3180 nM
